Test results published in patent publication US20020137929A1, “1 - (3-heterocyclylphenyl) isothiourea, -isourea, -guanidine and -amidine herbicidal agents” (Intellectual Property Department, BASF Aktiengesellschaft, priority 1998, published 2002).

Tests used:
[1] = test system: TRZAWR (Wheat, Winter, cv Riband); experiment: Postemergence herbicidal evaluation; type: in vivo, Triticum aestivum; conditions: postemergence
Summary of the method: (§1)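 Compound is applied as a foliar spray to seedlings about two weeks old, formulated in equal parts acetone and water with 0.5% TWEEN 20 and delivered at 40 psi to give about 0.0156–0.500 kg per hectare. Injury is rated visually 0–9 after four to five weeks.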

ORYSAT (Rice, Tebonnet) = experiment: Postemergence herbicidal evaluation; type: in vivo, Oryza sativa, (L.) Tebonnet; conditions: postemergence
Summary of the method: as §1

SETVI (Foxtail, Green) [2] = experiment: Postemergence herbicidal evaluation; type: in vivo, Setaria viridis; conditions: postemergence
Summary of the method: as §1

[3] = test system: SAGPY (Arrowhead (Pygmaea)); experiment: Postemergence weed control under flooded paddy conditions; type: in vivo, Sagittaria pygmaea; conditions: postemergence weeds, rated 3 to 4 weeks after treatment
Summary of the method: (§2)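 Flood-water application, about 0.0313–0.500 kg/ha a.i. in aqueous/acetone 50/50 v/v; water depth 1.5–3 cm throughout. Weeds 3–5 cm, rice 1.5–2.5 leaf. Greenhouse; 0–9 visual rating vs control at 3–4 wk.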

ABUTH (Velvetleaf) [4] = experiment: Preemergence herbicidal evaluation; type: in vivo, Abutilon theophrasti; conditions: rated 4-5 weeks after treatment; for ABUTH rating: preemergence, 0-9 scale
Summary of the method: (§3)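 Visual 0-9 rating vs control (stand, vigor, malformation, size, chlorosis, overall appearance), scored 4-5 wk after spraying. Seeded soil cups were treated preemergence with compound in aqueous acetone, ~0.0156-0.500 kg/ha equivalent.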

ABUTH (Velvetleaf) [5] = experiment: Postemergence herbicidal evaluation; type: in vivo, Abutilon theophrasti; conditions: postemergence
Summary of the method: as §1

CYPIR (Rice Flatsedge) = experiment: Postemergence weed control under flooded paddy conditions; type: in vivo, Cyperus iria; conditions: postemergence weeds, rated 3 to 4 weeks after treatment
Summary of the method: as §2

CASOB (Sicklepod) = experiment: Preemergence herbicidal evaluation; type: in vivo, Cassia obtusifolia; conditions: rated 4-5 weeks after treatment; for CASOB rating: preemergence, 0-9 scale
Summary of the method: as §3

MOOVA (Monochoria) = experiment: Preemergence weed control under flooded paddy conditions; type: in vivo, Monochoria vaginalis; conditions: rated 3-4 weeks after treatment
Summary of the method: (§4)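 Silt loam, seeds in top 0.5 cm; flood held 1.5-3 cm; test cpd as acetone/water 50/50 into flood water, ~0.0313-0.500 kg/ha a.i.; greenhouse 3-4 wk; visual 0-9 score vs control.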

SETVI (Foxtail, Green) [6] = experiment: Preemergence herbicidal evaluation; type: in vivo, Setaria viridis; conditions: rated 4-5 weeks after treatment; for SETVI rating: preemergence, 0-9 scale
Summary of the method: as §3

[7] = test system: GLXMAW (Soybean, Williams); experiment: Postemergence herbicidal evaluation; type: in vivo, Glycine max, (L.) Merr. cv Williams; conditions: postemergence
Summary of the method: as §1

ECHCG (Barnyardgrass) = experiment: Postemergence herbicidal evaluation; type: in vivo, Echinochloa crus-galli; conditions: postemergence
Summary of the method: as §1

[8] = test system: SAGPY (Arrowhead (Pygmaea)); experiment: Preemergence weed control under flooded paddy conditions; type: in vivo, Sagittaria pygmaea; conditions: rated 3-4 weeks after treatment
Summary of the method: as §4

AMBEL (Ragweed, Common) = experiment: Postemergence herbicidal evaluation; type: in vivo, Ambrosia artemisifolia; conditions: postemergence
Summary of the method: as §1

C#CCOC(=O)CC1SC(=Nc2cc(-n3c(=O)cc(C(F)(F)F)n(C)c3=O)c(F)cc2Cl)N(C)C1=O (centres unmarked) [Compound 90, 2-Propynyl 2-{{2-chloro-5-[3,6-dihydro-3-methyl-2,6-dioxo-4-(trifluoromethyl)-1(2H)-pyrimidinyl]-4-fluorophenyl}imino}-3-methyl-4-oxo-5-thiazolidineacetate]
TRZAWR herbicidal rating ([1]; rate 0.0158 kg/ha): 5.5 | TRZAWR herbicidal rating ([1]; rate 0.0315 kg/ha): 7.0 | TRZAWR herbicidal rating ([1]; rate 0.0630 kg/ha): 7.5 | ORYSAT herbicidal rating (ORYSAT (Rice, Tebonnet); rate 0.0158 kg/ha): 4.0 | ORYSAT herbicidal rating (ORYSAT (Rice, Tebonnet); rate 0.0315 kg/ha): 6.5 | ORYSAT herbicidal rating (ORYSAT (Rice, Tebonnet); rate 0.0630 kg/ha): 6.5 | SETVI herbicidal rating (SETVI (Foxtail, Green) [2]; rate 0.0158 kg/ha): 9.0 | SETVI herbicidal rating (SETVI (Foxtail, Green) [2]; rate 0.0315 kg/ha): 9.0 | SETVI herbicidal rating (SETVI (Foxtail, Green) [2]; rate 0.0630 kg/ha): 9.0 | Herbicidal rating SAGPY ([3]; Rate 0.0313 kg/ha): 4.0 | Herbicidal rating SAGPY ([3]; Rate 0.0625 kg/ha): 6.0 | Herbicidal rating SAGPY ([3]; Rate 0.1250 kg/ha): 9.0 | Herbicidal rating SAGPY ([3]; Rate 0.2500 kg/ha): 9.0 | ABUTH rating (ABUTH (Velvetleaf) [4]; 0.0313 kg/ha): 9.0 | ABUTH rating (ABUTH (Velvetleaf) [4]; 0.0625 kg/ha): 9.0 | ABUTH rating (ABUTH (Velvetleaf) [4]; 0.1250 kg/ha): 9.0 | ABUTH rating (ABUTH (Velvetleaf) [4]; 0.2500 kg/ha): 9.0 | ABUTH herbicidal rating (ABUTH (Velvetleaf) [5]; rate 0.0158 kg/ha): 9.0 | ABUTH herbicidal rating (ABUTH (Velvetleaf) [5]; rate 0.0315 kg/ha): 9.0 | ABUTH herbicidal rating (ABUTH (Velvetleaf) [5]; rate 0.0630 kg/ha): 9.0 | Herbicidal rating CYPIR (CYPIR (Rice Flatsedge); Rate 0.0313 kg/ha): 0.0 | Herbicidal rating CYPIR (CYPIR (Rice Flatsedge); Rate 0.0625 kg/ha): 0.0 | Herbicidal rating CYPIR (CYPIR (Rice Flatsedge); Rate 0.1250 kg/ha): 1.0 | Herbicidal rating CYPIR (CYPIR (Rice Flatsedge); Rate 0.2500 kg/ha): 3.0 | CASOB rating (CASOB (Sicklepod); 0.0313 kg/ha): 3.0 | CASOB rating (CASOB (Sicklepod); 0.0625 kg/ha): 9.0 | CASOB rating (CASOB (Sicklepod); 0.1250 kg/ha): 9.0 | CASOB rating (CASOB (Sicklepod); 0.2500 kg/ha): 9.0 | MOOVA herbicidal effect rating (MOOVA (Monochoria); 0.0313 kg/ha): 9.0 | MOOVA herbicidal effect rating (MOOVA (Monochoria); 0.0625 kg/ha): 9.0 | MOOVA herbicidal effect rating (MOOVA (Monochoria); 0.1250 kg/ha): 9.0 | MOOVA herbicidal effect rating (MOOVA (Monochoria); 0.2500 kg/ha): 9.0 | SETVI rating (SETVI (Foxtail, Green) [6]; 0.0313 kg/ha): 0.0 | SETVI rating (SETVI (Foxtail, Green) [6]; 0.0625 kg/ha): 3.0 | SETVI rating (SETVI (Foxtail, Green) [6]; 0.1250 kg/ha): 9.0 | SETVI rating (SETVI (Foxtail, Green) [6]; 0.2500 kg/ha): 9.0 | GLXMAW herbicidal rating ([7]; rate 0.0158 kg/ha): 9.0 | GLXMAW herbicidal rating ([7]; rate 0.0315 kg/ha): 9.0 | GLXMAW herbicidal rating ([7]; rate 0.0630 kg/ha): 9.0 | ECHCG herbicidal rating (ECHCG (Barnyardgrass); rate 0.0158 kg/ha): 3.0 | ECHCG herbicidal rating (ECHCG (Barnyardgrass); rate 0.0315 kg/ha): 5.0 | ECHCG herbicidal rating (ECHCG (Barnyardgrass); rate 0.0630 kg/ha): 9.0 | SAGPY herbicidal effect rating ([8]; 0.0313 kg/ha): 4.0 | SAGPY herbicidal effect rating ([8]; 0.0625 kg/ha): 6.0 | SAGPY herbicidal effect rating ([8]; 0.1250 kg/ha): 9.0 | SAGPY herbicidal effect rating ([8]; 0.2500 kg/ha): 9.0 | AMBEL herbicidal rating (AMBEL (Ragweed, Common); rate 0.0158 kg/ha): 9.0 | AMBEL herbicidal rating (AMBEL (Ragweed, Common); rate 0.0315 kg/ha): 9.0 | AMBEL herbicidal rating (AMBEL (Ragweed, Common); rate 0.0630 kg/ha): 9.0

CCOC(=O)CN1C(=O)C(CC(=O)Nc2ccccc2)SC1=Nc1cc(-n2c(=O)cc(C(F)(F)F)n(C)c2=O)c(F)cc1Cl (centres unmarked) [Compound 68, Ethyl 2-{{2-chloro-5-[3,6-dihydro-3-methyl-2,6-dioxo-4-(trifluoromethyl)-1(2H)-pyrimidinyl]-4-fluorophenyl}imino}-4-oxo-5-[(phenylcarbamoyl)-methyl]-3-thiazolidineacetate]
TRZAWR herbicidal rating ([1]; rate 0.0158 kg/ha): 3.0 | TRZAWR herbicidal rating ([1]; rate 0.0315 kg/ha): 3.5 | TRZAWR herbicidal rating ([1]; rate 0.0630 kg/ha): 4.0 | ORYSAT herbicidal rating (ORYSAT (Rice, Tebonnet); rate 0.0158 kg/ha): 3.0 | ORYSAT herbicidal rating (ORYSAT (Rice, Tebonnet); rate 0.0315 kg/ha): 3.5 | ORYSAT herbicidal rating (ORYSAT (Rice, Tebonnet); rate 0.0630 kg/ha): 4.0 | SETVI herbicidal rating (SETVI (Foxtail, Green) [2]; rate 0.0158 kg/ha): 2.0 | SETVI herbicidal rating (SETVI (Foxtail, Green) [2]; rate 0.0315 kg/ha): 6.0 | SETVI herbicidal rating (SETVI (Foxtail, Green) [2]; rate 0.0630 kg/ha): 6.0 | Herbicidal rating SAGPY ([3]; Rate 0.0313 kg/ha): 0.0 | Herbicidal rating SAGPY ([3]; Rate 0.0625 kg/ha): 0.0 | Herbicidal rating SAGPY ([3]; Rate 0.1250 kg/ha): 0.0 | Herbicidal rating SAGPY ([3]; Rate 0.2500 kg/ha): 3.0 | Preemergence herbicidal rating ABUTH (ABUTH (Velvetleaf) [4]; rate 0.0156 kg/ha): 0.0 | Preemergence herbicidal rating ABUTH (ABUTH (Velvetleaf) [4]; rate 0.0313 kg/ha): 1.0 | Preemergence herbicidal rating ABUTH (ABUTH (Velvetleaf) [4]; rate 0.0625 kg/ha): 1.0 | Preemergence herbicidal rating ABUTH (ABUTH (Velvetleaf) [4]; rate 0.1250 kg/ha): 5.0 | Preemergence herbicidal rating ABUTH (ABUTH (Velvetleaf) [4]; rate 0.2500 kg/ha): 9.0 | ABUTH herbicidal rating (ABUTH (Velvetleaf) [5]; rate 0.0158 kg/ha): 7.0 | ABUTH herbicidal rating (ABUTH (Velvetleaf) [5]; rate 0.0315 kg/ha): 9.0 | ABUTH herbicidal rating (ABUTH (Velvetleaf) [5]; rate 0.0630 kg/ha): 7.0 | Herbicidal rating CYPIR (CYPIR (Rice Flatsedge); Rate 0.0313 kg/ha): 0.0 | Herbicidal rating CYPIR (CYPIR (Rice Flatsedge); Rate 0.0625 kg/ha): 0.0 | Herbicidal rating CYPIR (CYPIR (Rice Flatsedge); Rate 0.1250 kg/ha): 5.0 | Herbicidal rating CYPIR (CYPIR (Rice Flatsedge); Rate 0.2500 kg/ha): 8.0 | Preemergence herbicidal rating CASOB (CASOB (Sicklepod); rate 0.0156 kg/ha): 0.0 | Preemergence herbicidal rating CASOB (CASOB (Sicklepod); rate 0.0313 kg/ha): 0.0 | Preemergence herbicidal rating CASOB (CASOB (Sicklepod); rate 0.0625 kg/ha): 0.0 | Preemergence herbicidal rating CASOB (CASOB (Sicklepod); rate 0.1250 kg/ha): 0.0 | Preemergence herbicidal rating CASOB (CASOB (Sicklepod); rate 0.2500 kg/ha): 1.0 | MOOVA herbicidal effect rating (MOOVA (Monochoria); 0.0313 kg/ha): 3.0 | MOOVA herbicidal effect rating (MOOVA (Monochoria); 0.0625 kg/ha): 9.0 | MOOVA herbicidal effect rating (MOOVA (Monochoria); 0.1250 kg/ha): 9.0 | MOOVA herbicidal effect rating (MOOVA (Monochoria); 0.2500 kg/ha): 9.0 | Preemergence herbicidal rating SETVI (SETVI (Foxtail, Green) [6]; rate 0.0156 kg/ha): 0.0 | Preemergence herbicidal rating SETVI (SETVI (Foxtail, Green) [6]; rate 0.0313 kg/ha): 0.0 | Preemergence herbicidal rating SETVI (SETVI (Foxtail, Green) [6]; rate 0.0625 kg/ha): 0.0 | Preemergence herbicidal rating SETVI (SETVI (Foxtail, Green) [6]; rate 0.1250 kg/ha): 0.0 | Preemergence herbicidal rating SETVI (SETVI (Foxtail, Green) [6]; rate 0.2500 kg/ha): 2.0 | GLXMAW herbicidal rating ([7]; rate 0.0158 kg/ha): 6.0 | GLXMAW herbicidal rating ([7]; rate 0.0315 kg/ha): 5.5 | GLXMAW herbicidal rating ([7]; rate 0.0630 kg/ha): 7.0 | ECHCG herbicidal rating (ECHCG (Barnyardgrass); rate 0.0158 kg/ha): 2.0 | ECHCG herbicidal rating (ECHCG (Barnyardgrass); rate 0.0315 kg/ha): 2.0 | ECHCG herbicidal rating (ECHCG (Barnyardgrass); rate 0.0630 kg/ha): 5.0 | SAGPY herbicidal effect rating ([8]; 0.0313 kg/ha): 0.0 | SAGPY herbicidal effect rating ([8]; 0.0625 kg/ha): 0.0 | SAGPY herbicidal effect rating ([8]; 0.1250 kg/ha): 0.0 | SAGPY herbicidal effect rating ([8]; 0.2500 kg/ha): 3.0 | AMBEL herbicidal rating (AMBEL (Ragweed, Common); rate 0.0158 kg/ha): 9.0 | AMBEL herbicidal rating (AMBEL (Ragweed, Common); rate 0.0315 kg/ha): 9.0 | AMBEL herbicidal rating (AMBEL (Ragweed, Common); rate 0.0630 kg/ha): 9.0
